# In patent US12187746B2, “C26-linked rapamycin analogs as mTOR inhibitors” (Revolution Medicines, Inc., priority 2018, dated 2025):
# How the values were obtained:
# P-P70S6K (T389) = experiment: Cell based AlphaLISA assay, inhibition of P-P70S6K (T389) in MDA-MB-468 cells; conditions: Homo sapiens, 4 h, 0.017-1,000 nM, two to four hours at 37° C., AlphaLisa SureFire Ultra, read-out: pIC50 for Inhibition of mTORC1 and mTORC2 Substrate Phosphorylation, p-P70S6K-(T389) (converted)
# How it was run: (§1)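 mTORC1 and mTORC2 activity in cells tracked through AlphaLISA SureFire Ultra detection of the phosphoproteins after incubation and cell lysis; Alpha signal read in duplicate. IC50 from normalized concentration–response regression with control-based normalization.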
# P-Akt (S473) = experiment: Cell based AlphaLISA assay, inhibition of P-Akt (S473) in MDA-MB-468 cells; conditions: Homo sapiens, 4 h, 0.017-1,000 nM, two to four hours at 37° C., AlphaLisa SureFire Ultra, read-out: pIC50 for Inhibition of mTORC1 and mTORC2 Substrate Phosphorylation, p-AKT1/2/3-(S473) (converted)
# How it was run: as §1
# P-4E-BP1 (T37/46) = experiment: Cell based AlphaLISA assay, inhibition of P-4E-BP1 (T37/46) in MDA-MB-468 cells; conditions: Homo sapiens, 4 h, 0.017-1,000 nM, two to four hours at 37° C., AlphaLisa SureFire Ultra, read-out: pIC50 for Inhibition of mTORC1 and mTORC2 Substrate Phosphorylation, p-4E-BP1-(T37/46) (converted)
# How it was run: as §1
SMILES,IC50 (P-P70S6K (T389)),IC50 (P-Akt (S473)),IC50 (P-4E-BP1 (T37/46))
CO[C@H]1C[C@@H]2CC[C@@H](C)[C@@](O)(O2)C(=O)C(=O)N2CCCC[C@H]2C(=O)O[C@H]([C@H](C)C[C@@H]2CC[C@@H](O)[C@H](OC)C2)C[C@@H](O)[C@H](C)/C=C(\C)[C@@H](O)[C@@H](OC)C(=NOCC(=O)NCc2cnc(N3CCN(C(=O)CCOCCN4CCN(C(=O)CN(C)CC(=O)N5CCc6cc(Cn7nc(-c8ccc9oc(N)nc9c8)c8c(N)ncnc87)ccc6C5)CC4)CC3)nc2)[C@H](C)C[C@H](C)/C=C/C=C/C=C/1C [Example 36],1 to 10 nM,> 1000 nM,31.6 to 1000 nM
CO[C@H]1C[C@@H]2CC[C@@H](C)[C@@](O)(O2)C(=O)C(=O)N2CCCC[C@H]2C(=O)O[C@H]([C@H](C)C[C@@H]2CC[C@@H](O)[C@H](OC)C2)C[C@@H](O)[C@H](C)/C=C(\C)[C@@H](O)[C@@H](OC)C(=NOCC(=O)NCCOCCOCCOCCOCCOCCOCCOCCOCCC(=O)NCCS(=O)(=O)c2ccc(C(=O)N3CCOc4ccc(-c5ccc(N)nc5)cc4C3)c(C)c2)[C@H](C)C[C@H](C)/C=C/C=C/C=C/1C [Example 45],1 to 10 nM,> 1000 nM,3.16 to 31.6 nM
CO[C@H]1C[C@@H]2CC[C@@H](C)[C@@](O)(O2)C(=O)C(=O)N2CCCC[C@H]2C(=O)O[C@H]([C@H](C)C[C@@H]2CC[C@@H](O)[C@H](OC)C2)C[C@@H](O)[C@H](C)/C=C(\C)[C@@H](O)[C@@H](OC)C(=NOCC(=O)NCc2cnc(N3CCN(C(=O)CCOCCN4CCN(c5ncc(C(=O)N6CCc7cc(Cn8nc(-c9ccc%10oc(N)nc%10c9)c9c(N)ncnc98)ccc7C6)cn5)CC4)[C@@H](C(=O)O)C3)nc2)[C@H](C)C[C@H](C)/C=C/C=C/C=C/1C [Example 55],< 1 nM,> 1000 nM,3.16 to 31.6 nM
"CO[C@H]1C[C@@H]2CC[C@@H](C)[C@@](O)(O2)C(=O)C(=O)N2CCCC[C@H]2C(=O)O[C@H]([C@H](C)C[C@@H]2CC[C@@H](O)[C@H](OC)C2)CC(=O)[C@H](C)/C=C(\C)[C@@H](O)[C@@H](OC)C(=O)[C@H](C)C[C@H](C)/C=C/C=C/C=C/1C [Rapamycin, (3S,6R,7E,9R, 10R, 12R, 14S, 15E, 17E, 19E,21S,23S,26R,27R,34aS)-9, 10, 12, 13, 14,21,22,23,24,25,26,27,32,33,34,34a-hexadecahydro-9,27-dihydroxy-3-[(1R)-2-[(1 S,3 R,4R)-4-hydroxy-3-methoxycyclohexyl]-1-methylethyl]-10,21-dimethoxy-6,8,12,14,20,26-hexamethyl-23,27-epoxy-3H-pyrido[2,1-c][1,4]-oxaazacyclohentriacontine-1,5,11,28,29(4H,6H,31H)-pentone]",< 1 nM,> 1000 nM,> 1000 nM
CO[C@H]1C[C@@H]2CC[C@@H](C)[C@@](O)(O2)C(=O)C(=O)N2CCCC[C@H]2C(=O)O[C@H]([C@H](C)C[C@@H]2CC[C@@H](O)[C@H](OC)C2)C[C@@H](O)[C@H](C)/C=C(\C)[C@@H](O)[C@@H](OC)C(=NOCC(=O)NCCOCCC(=O)NCc2cnc(N3CCN(C(=O)CCOCCN4CCN(c5ncc(C(=O)N6CCc7cc(Cn8nc(-c9ccc%10oc(N)nc%10c9)c9c(N)ncnc98)ccc7C6)cn5)CC4)CC3)nc2)[C@H](C)C[C@H](C)/C=C/C=C/C=C/1C [Example 44],< 1 nM,31.6 to 1000 nM,3.16 to 31.6 nM
CO[C@H]1C[C@@H]2CC[C@@H](C)[C@@](O)(O2)C(=O)C(=O)N2CCCC[C@H]2C(=O)O[C@H]([C@H](C)C[C@@H]2CC[C@@H](O)[C@H](OC)C2)C[C@@H](O)[C@H](C)/C=C(\C)[C@@H](O)[C@@H](OC)C(=NOCC(=O)N2CCc3nc(N4CCN(C(=O)CCOCCN5CCN(c6ncc(C(=O)N7CCc8cc(Cn9nc(-c%10ccc%11oc(N)nc%11c%10)c%10c(N)ncnc%109)ccc8C7)cn6)CC5)CC4)ncc3C2)[C@H](C)C[C@H](C)/C=C/C=C/C=C/1C [Example 57],< 1 nM,> 1000 nM,3.16 to 31.6 nM
CO[C@H]1C[C@@H]2CC[C@@H](C)[C@@](O)(O2)C(=O)C(=O)N2CCCC[C@H]2C(=O)O[C@H]([C@H](C)C[C@@H]2CC[C@@H](O)[C@H](OC)C2)C[C@@H](O)[C@H](C)/C=C(\C)[C@@H](O)[C@@H](OC)C(=NOCC(=O)N2CCc3nc(N4CCN(c5ncc(C(=O)NCCOCCOCCOCCC(=O)NCCCCn6nc(-c7ccc8oc(N)nc8c7)c7c(N)ncnc76)cn5)CC4)ncc3C2)[C@H](C)C[C@H](C)/C=C/C=C/C=C/1C [Example 15],1 to 10 nM,31.6 to 1000 nM,3.16 to 31.6 nM
CO[C@H]1C[C@@H]2CC[C@@H](C)[C@@](O)(O2)C(=O)C(=O)N2CCCC[C@H]2C(=O)O[C@H]([C@H](C)C[C@@H]2CC[C@@H](O)[C@H](OC)C2)C[C@@H](O)[C@H](C)/C=C(\C)[C@@H](O)[C@@H](OC)C(=NOCC(=O)NCc2cnc(N3CCN(C(=O)CCCN4CCN(c5ncc(C(=O)N6CCc7cc(Cn8nc(-c9ccc%10oc(N)nc%10c9)c9c(N)ncnc98)ccc7C6)cn5)CC4)CC3)nc2)[C@H](C)C[C@H](C)/C=C/C=C/C=C/1C [Example 65],1 to 10 nM,> 1000 nM,3.16 to 31.6 nM
CO[C@H]1C[C@@H]2CC[C@@H](C)[C@@](O)(O2)C(=O)C(=O)N2CCCC[C@H]2C(=O)O[C@H]([C@H](C)C[C@@H]2CC[C@@H](O)[C@H](OC)C2)C[C@@H](O)[C@H](C)/C=C(\C)[C@@H](O)[C@@H](OC)C(=NOCC(=O)NCc2cnc(N3CCN(c4ncc(C(=O)NCCOCCOCCOCCC(=O)N5CCc6cc(Cn7nc(-c8cnc9[nH]ccc9c8)c8c(N)ncnc87)ccc6C5)cn4)CC3)nc2)[C@H](C)C[C@H](C)/C=C/C=C/C=C/1C [Example 21],1 to 10 nM,> 1000 nM,3.16 to 31.6 nM
CO[C@H]1C[C@@H]2CC[C@@H](C)[C@@](O)(O2)C(=O)C(=O)N2CCCC[C@H]2C(=O)O[C@H]([C@H](C)C[C@@H]2CC[C@@H](O)[C@H](OC)C2)C[C@@H](O)[C@H](C)/C=C(\C)[C@@H](O)[C@@H](OC)C(=NOCC(=O)NCc2cnc(N3CCN(c4ncc(C(=O)NCCOCCC(=O)NCCCCn5nc(-c6ccc7oc(N)nc7c6)c6c(N)ncnc65)c(N)n4)CC3)nc2)[C@H](C)C[C@H](C)/C=C/C=C/C=C/1C [Example 51],10 to 1000 nM,> 1000 nM,> 1000 nM
CO[C@H]1C[C@@H]2CC[C@@H](C)[C@@](O)(O2)C(=O)C(=O)N2CCCC[C@H]2C(=O)O[C@H]([C@H](C)C[C@@H]2CC[C@@H](O)[C@H](OC)C2)C[C@@H](O)[C@H](C)/C=C(\C)[C@@H](O)[C@@H](OC)C(=NOCC(=O)NC2CCN(CC(=O)NCCOCCOCCOCCOCCOCCOCCC(=O)N3CCc4cc(Cn5nc(-c6ccc7oc(N)nc7c6)c6c(N)ncnc65)ccc4C3)CC2)[C@H](C)C[C@H](C)/C=C/C=C/C=C/1C [Example 68],1 to 10 nM,31.6 to 1000 nM,3.16 to 31.6 nM
CO[C@H]1C[C@@H]2CC[C@@H](C)[C@@](O)(O2)C(=O)C(=O)N2CCCC[C@H]2C(=O)O[C@H]([C@H](C)C[C@@H]2CC[C@@H](O)[C@H](OC)C2)C[C@@H](O)[C@H](C)/C=C(\C)[C@@H](O)[C@@H](OC)C(=NOCC(=O)NCCOCCOCCOCCOCCOCCOCCC(=O)NCCCCn2nc(-c3ccc4oc(N)nc4c3)c3c(N)ncnc32)[C@H](C)C[C@H](C)/C=C/C=C/C=C/1C [Example 2],< 1 nM,31.6 to 1000 nM,3.16 to 31.6 nM
